The test system of one experiment is bacterial Sir2. The conditions noted are these: cited from earlier work.
The next experiment concerns yeast Sir2. The conditions noted are these: cited from earlier work.
For another experiment, the system named is mouse Sir2. The conditions noted are these: cited from earlier work.
The subject of another experiment is SIRT1. The conditions noted are these: cited from earlier work.
A further experiment deals with SIRT2. The conditions noted are these: cited from earlier work.
The test system of another experiment is SIRT5. The conditions noted are these: cited from earlier work.
Experiment [1] has as its target T1, recombinant human SIRT1 (Homo sapiens, UniProt Q96EB6).
T1 sequence (Q96EB6 1-747): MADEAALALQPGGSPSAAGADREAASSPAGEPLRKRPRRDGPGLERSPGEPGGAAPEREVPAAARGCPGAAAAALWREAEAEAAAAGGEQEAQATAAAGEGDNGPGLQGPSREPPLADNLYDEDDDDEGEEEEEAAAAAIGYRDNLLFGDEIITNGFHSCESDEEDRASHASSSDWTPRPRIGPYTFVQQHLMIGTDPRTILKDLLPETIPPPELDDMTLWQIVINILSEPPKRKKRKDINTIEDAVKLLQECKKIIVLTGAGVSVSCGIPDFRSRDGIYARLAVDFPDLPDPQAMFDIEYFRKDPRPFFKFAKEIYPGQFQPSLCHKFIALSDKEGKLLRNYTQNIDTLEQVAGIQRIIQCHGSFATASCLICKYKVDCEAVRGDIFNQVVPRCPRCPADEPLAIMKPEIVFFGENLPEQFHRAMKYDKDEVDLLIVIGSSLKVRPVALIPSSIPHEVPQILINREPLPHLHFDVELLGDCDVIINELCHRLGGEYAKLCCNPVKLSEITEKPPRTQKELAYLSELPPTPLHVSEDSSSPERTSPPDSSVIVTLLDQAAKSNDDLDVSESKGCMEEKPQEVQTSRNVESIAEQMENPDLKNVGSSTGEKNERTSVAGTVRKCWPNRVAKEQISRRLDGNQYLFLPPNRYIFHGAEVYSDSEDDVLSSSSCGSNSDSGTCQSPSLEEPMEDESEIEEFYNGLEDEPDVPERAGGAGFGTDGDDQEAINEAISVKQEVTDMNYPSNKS
Description: SIRT1 initial-rate inhibition kinetics against NAD+, global nonlinear fitting (Eq. 1). In kind it is biochemical. Also noted: purchased Enzo Life Sciences AK 555. The source says: We utilized a novel deacetylation activity assay that generates a fluorescent signal upon deacetylation of a peptide substrate.
Data are globally nonlinear fitted to base exchange inhibition model (Eq. 1) and shown as a double-reciprocal plot of 1/v versus 1/[NAD^+]. In (C) and (D), the intersection points of the double reciprocal plots are enlarged for SIRT1 and SIRT3, respectively.

In experiment [2] the target is T2, recombinant human SIRT3 (Homo sapiens, UniProt Q9NTG7).
T2 sequence (Q9NTG7 1-399): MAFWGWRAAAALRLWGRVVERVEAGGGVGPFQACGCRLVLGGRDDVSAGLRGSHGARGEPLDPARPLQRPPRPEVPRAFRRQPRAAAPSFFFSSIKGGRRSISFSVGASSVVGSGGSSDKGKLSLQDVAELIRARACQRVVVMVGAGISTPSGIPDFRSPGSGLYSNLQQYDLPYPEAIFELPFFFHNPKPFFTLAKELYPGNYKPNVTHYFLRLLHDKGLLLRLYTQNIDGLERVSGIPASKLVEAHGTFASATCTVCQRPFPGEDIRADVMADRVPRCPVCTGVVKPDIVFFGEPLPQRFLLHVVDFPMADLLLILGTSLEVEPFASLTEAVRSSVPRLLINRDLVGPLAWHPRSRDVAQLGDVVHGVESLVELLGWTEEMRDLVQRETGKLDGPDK
Description: Fluorometric deacetylation assay, IC50 of NAM and isoNAM for SIRT3. In kind it is biochemical. The conditions noted are these: 90 minutes incubation, 1 mM NAD^+ at 37°C (Methods b105: 100 µM NAD^+). Also noted: purchased Creative BioMart.
Description: (§1) The steady state parameters (Km and kcat) and catalytic efficiency (kcat/Km) of deacetylase activity of recombinant human SIRT1 and SIRT3 were determined using a fluorometric assay. […] Unless otherwise indicated, all initial rate measurements were means of three or more replicates, obtained with single incubation times, at which point 5% or less of the substrate initially present had been deacetylated. The raw data were fitted to the Michaelis-Menten equation and defined inhibition models (Eqs. 1 and 2) by using GraphPad Prism (GraphPad Software, Inc, CA) to obtain the kinetic constants.
(§2) The data were fitted to equation (8) by using Prism to calculate the IC 50 values: [drawing 55] (8) where v0 is the initial rate of the uninhibited reaction and vi is the initial rate of the reaction at concentration I of the inhibitor.

Experiment [3] has as its target T1, recombinant human SIRT1. Nature of the experiment: Fluorometric deacetylation assay, IC50 of NAM and isoNAM for SIRT1.
Description: as §1, §2
The target of experiment [4] is T2, recombinant human SIRT3. Description: SIRT3 initial-rate inhibition kinetics against NAD+, global nonlinear fitting (Eq. 1 / Eq. 2).
Description: Here, the in vitro SIRT3 deacetylation activity was measured in the presence of varying amounts of isoNAM. Global nonlinear fitting of the following standard mixed noncompetitive inhibition model to initial rate data was carried out for isoNAM inhibition of SIRT3: [drawing 4] (2) where, [I] denotes the concentration of inhibitor (isoNAM).
Data are globally nonlinear fitted to mixed inhibition model (Eq. 2) and shown as a double-reciprocal plot of 1/v versus 1/[NAD^+].
as §1

Molecules are shown by their SMILES.

The IC50 is the concentration that inhibits the measured activity by half. As a reminder, the Ki is a measure of affinity in units of concentration, obtained from inhibition or displacement.

On to `NC(=O)c1cccnc1` [NAM, nicotinamide], for which the IC50 with bacterial Sir2 was 26 µM; in the experiment with yeast Sir2 it was 120 µM; in the experiment with mouse Sir2, 160 µM; in the experiment on SIRT1, 50 µM; with SIRT2, […]; in the experiment with SIRT5 it was 1600 µM. In addition, the “Vmax, model parameter estimate” value at recombinant human SIRT1 [1] (global nonlinear fit of initial rates with NAM (Eq. 1)) was 0.863 µM/min. Moreover, at recombinant human SIRT1 [1] (global nonlinear fit of initial rates with NAM (Eq. 1), varying NAD^+, saturating peptide, 37°C), the “Michaelis constant, model parameter estimate” value was 168.2 µM. At recombinant human SIRT1 [1] (mixed inhibition model, K3≡αK2 (Eq. 1)), the α is 0.848.
Consider `NC(=O)c1ccncc1` [isoNAM, isonicotinamide], for which the IC50 is 13800 ± 500 µM at recombinant human SIRT3 [2] and 12200 ± 300 µM on recombinant human SIRT1 [3]. Besides, the inhibition constant Ki at recombinant human SIRT3 [4] (K 2(K i), K2 of Eq. 1 for NAM, Ki of Eq. 2 for isoNAM (in brackets), unit inferred, b71 gives isoNAM Ki≈4.6 mM) is 4620 µM; at recombinant human SIRT3 [4] (Ki, from fitting of Eq. 2, as restated in the Discussion), roughly 4600 µM. Moreover, the “Inhibition mode with respect to NAD^+” value at recombinant human SIRT3 [4] (double reciprocal plot / value of α) is recorded as “competitive inhibitor”. The “Vmax, model parameter estimate” value on recombinant human SIRT3 [4] (global nonlinear fit of initial rates with the named inhibitor (Eq. 1 for NAM, Eq. 2 for isoNAM)) was 0.167 µM/min. Further, the “Michaelis constant, model parameter estimate” value at recombinant human SIRT3 [4] (global nonlinear fit of initial rates with the named inhibitor (Eq. 1 for NAM, Eq. 2 for isoNAM), varying NAD^+, saturating peptide, 37°C) is given as 1402 µM.

The values above are taken from PMC4164625 (PLoS ONE, 2014).
